Several values for one entry are separate records, joined by “and”; a condition that tells them apart may be missing. Identical values can stand only once.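 Interpolation was linear, between the two tested concentrations surrounding the appropriate level; five concentrations were tested over 48 hours in 96-well plates. GI50 = concentration required for 50% inhibition of growth. At the TGI there is no net growth.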

Test systems include A498 renal; ACHN renal; HT29 colon; M14 melanoma; OVCAR-3 ovarian; OVCAR-4 ovarian; SF-268 CNS; SK-OV-3 ovarian; SN12C renal; UO-31 renal.
Holding throughout (assay): growth of human tumour cells (NCI), 48 h

On to `COc1ccc(/C=N\NC(=O)CN2CCN(c3cc4c(cc3F)c(=O)c(C(=O)N/N=C/c3ccc(OC)c(OC)c3)cn4C3CC3)CC2)cc1OC`, for which the GI50 in the assay on A498 renal is 1.4 µM; with ACHN renal, above 100 µM; with HT29 colon, 3.46 µM; in the assay with M14 melanoma, 3.53 µM; in the assay on OVCAR-3 ovarian, 2.65 µM; in the assay on OVCAR-4 ovarian it was 3.17 µM. Also, the GI50 in the assay with SF-268 CNS is 2.53 µM; in the assay on SK-OV-3 ovarian it was 3.22 µM; with SN12C renal, 2.72 µM; in the assay with UO-31 renal, above 100 µM. For the same compound, the TGI is 23.4 µM with A498 renal; above 100 µM in the assay with ACHN renal; above 100 µM in the assay on HT29 colon; 11.9 µM in the assay with M14 melanoma; 7.26 µM with OVCAR-3 ovarian; 11 µM in the assay on OVCAR-4 ovarian. Also, the TGI was 7.12 µM with SF-268 CNS, 9.67 µM in the assay on SK-OV-3 ovarian, 8.21 µM in the assay with SN12C renal and above 100 µM in the assay on UO-31 renal.
Take `O=C1OC(CC(=O)c2ccc(Cl)c(Cl)c2)C(Cl)=C1Cl` (stereo not given): the TGI in the assay with A498 renal, in the assay on ACHN renal, in the assay on HT29 colon, with M14 melanoma, in the assay on OVCAR-3 ovarian and with OVCAR-4 ovarian was above 100 µM in each case. Also, the TGI with SF-268 CNS, in the assay with SK-OV-3 ovarian, in the assay with SN12C renal and in the assay with UO-31 renal was above 100 µM throughout.
Consider `O=c1ccn(C2OC(CO)C(O)C2F)c(=O)[nH]1` (stereo not given), for which the GI50 is above 1000 µM in the assay with A498 renal; above 1000 µM in the assay with ACHN renal; above 1000 µM in the assay with HT29 colon; above 1000 µM in the assay with M14 melanoma; above 1000 µM in the assay on OVCAR-3 ovarian; 26 µM in the assay on OVCAR-4 ovarian. The GI50 in the assay with SF-268 CNS, with SK-OV-3 ovarian, with SN12C renal and in the assay on UO-31 renal was above 1000 µM each time. In addition, the TGI in the assay on A498 renal was above 1000 µM; in the assay with ACHN renal, above 1000 µM; in the assay with HT29 colon, above 1000 µM; in the assay with M14 melanoma it was above 1000 µM; in the assay with OVCAR-3 ovarian, above 1000 µM; with OVCAR-4 ovarian it was 840 µM and > 100 µM. Also, the TGI in the assay on SF-268 CNS, with SK-OV-3 ovarian, with SN12C renal and with UO-31 renal was above 1000 µM each time.
`COC(=O)C1C(C(=O)OC)C2(OC)c3ccccc3-c3ccccc3C12` (stereo not given): the TGI in the assay on A498 renal, with ACHN renal, in the assay on HT29 colon, in the assay on M14 melanoma, in the assay on OVCAR-3 ovarian and with OVCAR-4 ovarian was above 100 µM throughout. For the same compound, the TGI with SF-268 CNS, in the assay with SK-OV-3 ovarian, in the assay on SN12C renal and in the assay with UO-31 renal was above 100 µM each time.
In the case of `CCN(CC)CC(O)CNc1ccc(NCC2CO2)c2c1C(=O)c1ccccc1C2=O` (stereo not given), the TGI with A498 renal was 11.6 µM; in the assay with ACHN renal, 0.448 µM and 0.751 µM; with HT29 colon, 6.87 µM; in the assay with M14 melanoma, 0.402 µM and 0.674 µM; with OVCAR-3 ovarian, 2.69 µM; with OVCAR-4 ovarian, 3.3 µM. Also, the TGI came out at 0.683 µM with SF-268 CNS, 9.64 µM in the assay on SK-OV-3 ovarian, 0.899 µM in the assay on SN12C renal and 3.35 µM in the assay on UO-31 renal. The GI50 in the assay on ACHN renal is 0.0514 µM; in the assay with HT29 colon it was 0.275 µM; in the assay with OVCAR-3 ovarian it was 0.299 µM; in the assay with SN12C renal, 0.177 µM; in the assay on UO-31 renal, 0.391 µM.
On to `O=C1c2ccccc2-c2c1c1ccccc1c(=O)n2CCCNCCCn1ccnc1`, for which the GI50 in the assay with A498 renal is 2.05 µM; with ACHN renal, 0.252 µM; in the assay with HT29 colon, 1.21 µM; with M14 melanoma it was 0.51 µM; in the assay with OVCAR-3 ovarian, 1.63 µM; in the assay on OVCAR-4 ovarian, 6.34 µM. Also, the GI50 in the assay on SF-268 CNS was 3.12 µM; in the assay on SK-OV-3 ovarian it was 3.16 µM; with SN12C renal, 0.367 µM; in the assay on UO-31 renal it was 1.23 µM. The TGI is 7.83 µM in the assay on A498 renal; 0.879 µM with ACHN renal; above 33.4 µM in the assay on HT29 colon; 1.13 µM in the assay with M14 melanoma; 6.48 µM with OVCAR-3 ovarian; 28.1 µM with OVCAR-4 ovarian. In addition, the TGI is 23.2 µM in the assay on SF-268 CNS, 17.7 µM with SK-OV-3 ovarian, 1.29 µM in the assay on SN12C renal and above 100 µM in the assay with UO-31 renal.
For the compound `O=C1Nc2ccc(C(=O)c3ccco3)cc2/C1=C/c1cc(Cl)c(O)c(Cl)c1`, the GI50 with A498 renal was 3.69 µM; in the assay on ACHN renal, 2.14 µM; with HT29 colon, 5.75 µM; in the assay on M14 melanoma it was 1.45 µM; in the assay with OVCAR-3 ovarian, 4.32 µM; with OVCAR-4 ovarian, 6.95 µM. In addition, the GI50 was 5.94 µM with SF-268 CNS, 4.51 µM in the assay with SK-OV-3 ovarian, 6.53 µM in the assay with SN12C renal and 4.56 µM in the assay on UO-31 renal. The TGI is 9.72 µM in the assay on A498 renal; 11.1 µM with ACHN renal; above 21.2 µM in the assay with HT29 colon; 13.3 µM in the assay with M14 melanoma; 10.6 µM in the assay with OVCAR-3 ovarian; above 25 µM in the assay with OVCAR-4 ovarian. The TGI was above 25 µM in the assay on SF-268 CNS, 16.1 µM in the assay with SK-OV-3 ovarian, above 25 µM in the assay with SN12C renal and 11.5 µM with UO-31 renal.
For `CCNC(=O)CCN(C(=O)O)S(=O)(=O)c1ccc(NC(=O)c2ccccc2)cc1`, the TGI in the assay on A498 renal, in the assay with ACHN renal, in the assay on HT29 colon, with M14 melanoma, with OVCAR-3 ovarian and in the assay on OVCAR-4 ovarian was above 100 µM each time. The TGI in the assay with SF-268 CNS, in the assay on SK-OV-3 ovarian, in the assay with SN12C renal and with UO-31 renal was above 100 µM in each case.
For `CC(=O)[O-].CC(=O)[O-].[Pt+2].c1cscn1.c1cscn1`, the GI50 in the assay on A498 renal was above 100 µM; with ACHN renal, 19.7 µM; in the assay on HT29 colon, above 100 µM; with M14 melanoma it was above 100 µM; with OVCAR-3 ovarian it was above 100 µM; in the assay on OVCAR-4 ovarian, 74.3 µM. Also, the GI50 with SF-268 CNS, with SK-OV-3 ovarian, in the assay on SN12C renal and in the assay on UO-31 renal was above 100 µM in each case. Also, the TGI with A498 renal is above 100 µM; in the assay on ACHN renal, 42.2 µM; in the assay with HT29 colon, above 100 µM; in the assay on M14 melanoma, above 100 µM; in the assay on OVCAR-3 ovarian, above 100 µM; with OVCAR-4 ovarian, above 100 µM. Besides, the TGI in the assay on SF-268 CNS, in the assay on SK-OV-3 ovarian, with SN12C renal and in the assay on UO-31 renal was above 100 µM each time.
